Legend:
Format in all cases: in vivo
[1] = tested on: Chilo suppressalis (Striped Rice Stemborer); assay: Example B3: Chilo suppressalis (striped rice stemborer), artificial diet, L2 larvae; details: 144 h, application rate of 200 ppm, 6 days after infestation, L2 larvae, read-out: control in at least one of the three categories (mortality, anti-feedant effect, or growth inhibition)
In short: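 Diet-incorporation surface assay: aqueous dilutions of 10'000 ppm DMSO stock applied to artificial diet, dried; 6-8 L2 larvae/well; read day 6 post-infestation for mortality, antifeedant effect, growth inhibition vs untreated. Active if any category above untreated.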

[2] = tested on: Myzus persicae (Green Peach Aphid); assay: Example B6: Myzus persicae (green peach aphid) intrinsic activity, sucrose solution; details: 120 h, test rate of 12 ppm, 5 days after infestation, intrinsic activity, read-out: mortality
Protocol: Test compounds prepared from 10′000 ppm DMSO stock solutions were applied by pipette into 24-well microtiter plates and mixed with sucrose solution. The plates were closed with a stretched Parafilm. A plastic stencil with 24 holes was placed onto the plate and infested pea seedlings were placed directly on the Parafilm. The infested plate was closed with a gel blotting paper and another plastic stencil and then turned upside down. The samples were assessed for mortality 5 days after infestation.

[3] = tested on: Diabrotica Balteata (Corn Root Worm); assay: Example B1: Diabrotica balteata (corn root worm), maize sprouts sprayed, L2 larvae; details: 96 h, application rate of 200 ppm, 4 days after infestation, L2 larvae, read-out: control in at least one of the two categories (mortality or growth inhibition)
In short: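 Larvae at L2 stage, 6 to 10 per well, feed on dried, spray-treated maize sprouts set on agar. Evaluation after 4 days compares mortality and growth inhibition with untreated samples.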

[4] = tested on: Plutella xylostella (Diamond Back Moth); assay: Example B4: Plutella xylostella (diamond back moth), artificial diet, eggs, 24-well; details: 192 h, application rate of 200 ppm, 8 days after infestation, eggs, read-out: control in at least one of the two categories (mortality or growth inhibition)
Protocol: 24-well microtiter plates with artificial diet were treated with aqueous test solutions prepared from 10′000 ppm DMSO stock solutions by pipetting. After drying, Plutella eggs were pipetted through a plastic stencil onto a gel blotting paper and the plate was closed with it. The samples were assessed for mortality and growth inhibition in comparison to untreated samples 8 days after infestation.

[5] = tested on: Spodoptera littoralis (Egyptian Cotton Leaf Worm); assay: Example B7: Spodoptera littoralis (Egyptian cotton leaf worm), cotton leaf discs sprayed, L1 larvae; details: foliar, 72 h, application rate of 200 ppm, 3 days after infestation, L1 larvae, read-out: control in at least one of the three categories (mortality, anti-feedant effect, or growth inhibition)
In short: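 Cotton leaf discs on agar were sprayed with aqueous test solutions made from 10′000 ppm DMSO stocks, dried, then infested with five L1 larvae. Mortality, anti-feeding effect and growth inhibition were scored against untreated discs 3 days after infestation; control means any category exceeds untreated.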

C[C@@H](c1ncnn1-c1ncccn1)N(C)c1ncnc2c(Cl)cc(OC(F)F)cc12 [P.91, 8-chloro-6-(difluoromethoxy)-N-methyl-N-[(1S)-1-(2-pyrimidin-2-yl-1,2,4-triazol-3-yl)ethyl]quinazolin-4-amine]
≥ 80%: percent control (mortality, anti-feedant effect or growth inhibition) at 200 ppm [1] | mortality at 12 ppm [2] | percent control (mortality or growth inhibition) at 200 ppm [3] | percent control (mortality or growth inhibition) at 200 ppm [4]

CC(Nc1ncnc2c(Br)cc(Cl)cc12)c1nccnc1-c1ncccn1 (stereo not shown) [P.183, 8-bromo-6-chloro-N-[1-(3-pyrimidin-2-ylpyrazin-2-yl)ethyl]quinazolin-4-amine]
≥ 80%: percent control (mortality, anti-feedant effect or growth inhibition) at 200 ppm [1] | mortality at 12 ppm [2] | percent control (mortality, anti-feedant effect or growth inhibition) at 200 ppm [5] | percent control (mortality or growth inhibition) at 200 ppm [3] | percent control (mortality or growth inhibition) at 200 ppm [4]

CC(c1nccnc1-c1ncccn1)N(C)c1ncnc2c(Br)cc(Cl)cc12 (stereo not shown) [P.182, 8-bromo-6-chloro-N-methyl-N-[1-(3-pyrimidin-2-ylpyrazin-2-yl)ethyl]quinazolin-4-amine]
≥ 80%: mortality at 12 ppm [2] | percent control (mortality, anti-feedant effect or growth inhibition) at 200 ppm [5] | percent control (mortality or growth inhibition) at 200 ppm [3] | percent control (mortality or growth inhibition) at 200 ppm [4]

CC(c1nccnc1-c1ncccn1)N(C)c1ncnc2c(C(F)(F)F)cc(Br)cc12 (stereo not shown) [P.98, 6-bromo-N-methyl-N-[1-(3-pyrimidin-2-ylpyrazin-2-yl)ethyl]-8-(trifluoromethyl)quinazolin-4-amine]
≥ 80%: percent control (mortality, anti-feedant effect or growth inhibition) at 200 ppm [1] | mortality at 12 ppm [2] | percent control (mortality, anti-feedant effect or growth inhibition) at 200 ppm [5] | percent control (mortality or growth inhibition) at 200 ppm [3] | percent control (mortality or growth inhibition) at 200 ppm [4]

CC(Nc1ncnc2c(OC(F)F)cc(Br)cc12)c1ncnn1-c1ncccn1 (stereo not shown) [P.243, 6-bromo-8-(difluoromethoxy)-N-[1-(2-pyrimidin-2-yl-1,2,4-triazol-3-yl)ethyl]quinazolin-4-amine]
≥ 80%: percent control (mortality, anti-feedant effect or growth inhibition) at 200 ppm [1] | mortality at 12 ppm [2] | percent control (mortality, anti-feedant effect or growth inhibition) at 200 ppm [5] | percent control (mortality or growth inhibition) at 200 ppm [3] | percent control (mortality or growth inhibition) at 200 ppm [4]

CC(Nc1ncnc2c(Br)cc(Br)cc12)c1nccnc1-c1ncccn1 (stereo not shown) [P.38, 6,8-dibromo-N-[1-(3-pyrimidin-2-ylpyrazin-2-yl)ethyl]quinazolin-4-amine]
≥ 80%: percent control (mortality, anti-feedant effect or growth inhibition) at 200 ppm [1] | percent control (mortality, anti-feedant effect or growth inhibition) at 200 ppm [5] | percent control (mortality or growth inhibition) at 200 ppm [3] | percent control (mortality or growth inhibition) at 200 ppm [4]

C[C@H](Nc1ccnc2c(C(F)(F)F)cc(C(F)(F)F)cc12)c1ncnn1-c1ccc(C#N)cn1 [P.251, 6-[5-[(1S)-1-[[6,8-bis(trifluoromethyl)-4-quinolyl]amino]ethyl]-1,2,4-triazol-1-yl]pyridine-3-carbonitrile]
≥ 80%: percent control (mortality, anti-feedant effect or growth inhibition) at 200 ppm [1] | percent control (mortality, anti-feedant effect or growth inhibition) at 200 ppm [5] | percent control (mortality or growth inhibition) at 200 ppm [3] | percent control (mortality or growth inhibition) at 200 ppm [4]

CC(c1nccnc1-c1ccc(C#N)cn1)N(CC1CC1)c1ncnc2c(C(F)(F)F)cc(C(F)(F)F)cc12 (stereo not shown) [P.126, 6-[3-[1-[[6,8-bis(trifluoromethyl)quina-zolin-4-yl]-(cyclopropylmethyl)amino]ethyl]pyrazin-2-yl]pyridine-3-carbonitrile]
≥ 80%: percent control (mortality, anti-feedant effect or growth inhibition) at 200 ppm [1] | percent control (mortality, anti-feedant effect or growth inhibition) at 200 ppm [5] | percent control (mortality or growth inhibition) at 200 ppm [3] | percent control (mortality or growth inhibition) at 200 ppm [4]

CC(c1nccnc1-c1ccc(OC(F)F)cn1)N(C)c1ncnc2c(Cl)cc(C(F)(F)F)cc12 (stereo not shown) [P.112, 8-chloro-N-[1-[3-[5-(difluroomethoxy)-2-pyridyl]pyrazin-2-yl]ethyl]-N-methyl-6-(trifluoromethyl)quinazolin-4-amine]
≥ 80%: percent control (mortality, anti-feedant effect or growth inhibition) at 200 ppm [1] | percent control (mortality, anti-feedant effect or growth inhibition) at 200 ppm [5] | percent control (mortality or growth inhibition) at 200 ppm [3] | percent control (mortality or growth inhibition) at 200 ppm [4]

CC(Nc1ncnc2c(Br)cc(Br)cc12)c1ncnn1-c1ccc(C#N)cn1 (stereo not shown) [P.30, 6-[5-[1-[(6,8-dibromoquinazolin-4-yl)amino]ethyl]-1,2,4-triazol-1-yl]pyridine-3-carbonitrile]
≥ 80%: percent control (mortality, anti-feedant effect or growth inhibition) at 200 ppm [1] | percent control (mortality, anti-feedant effect or growth inhibition) at 200 ppm [5] | percent control (mortality or growth inhibition) at 200 ppm [3] | percent control (mortality or growth inhibition) at 200 ppm [4]

C[C@H](Nc1ncnc2c(Cl)cc(C(F)(F)F)cc12)c1ncnn1-c1ccc(C#N)cn1 [P.17, 6-[5-[(1S)-1-[[8-chloro-6-(trifluoromethyl)quinazolin-4-yl]amino]ethyl]-1,2,4-triazol-1-yl]pyridine-3-carbonitrile]
≥ 80%: percent control (mortality, anti-feedant effect or growth inhibition) at 200 ppm [1] | percent control (mortality, anti-feedant effect or growth inhibition) at 200 ppm [5] | percent control (mortality or growth inhibition) at 200 ppm [3] | percent control (mortality or growth inhibition) at 200 ppm [4]

CC(c1nc(Br)nn1-c1ncccn1)N(C)c1ncnc2c(C(F)(F)F)cc(C(F)(F)F)cc12 (stereo not shown) [P.4, N-[1-(5-bromo-2-pyrimidin-2-yl-1,2,4-triazol-3-yl)ethyl]-N-methyl-6,8-bis(trifluoromethyl)quina-zolin-4-amine]
≥ 80%: percent control (mortality, anti-feedant effect or growth inhibition) at 200 ppm [1] | percent control (mortality, anti-feedant effect or growth inhibition) at 200 ppm [5] | percent control (mortality or growth inhibition) at 200 ppm [3] | percent control (mortality or growth inhibition) at 200 ppm [4]

CC(c1ncnn1-c1ccc(Br)cn1)N(C)c1ncnc2c(Cl)cc(C(F)(F)F)cc12 (stereo not shown) [P.240, N-[1-[2-(5-bromo-2-pyridyl)-1,2,4-triazol-3-yl]ethyl]-8-chloro-N-methyl-6-(trifluoromethyl)quinazolin-4-amine]
≥ 80%: percent control (mortality, anti-feedant effect or growth inhibition) at 200 ppm [1] | percent control (mortality, anti-feedant effect or growth inhibition) at 200 ppm [5] | percent control (mortality or growth inhibition) at 200 ppm [3] | percent control (mortality or growth inhibition) at 200 ppm [4]

CC(Nc1ncnc2c(C(F)(F)F)cc(C(F)(F)F)cc12)c1nccnc1-n1nccn1 (stereo not shown) [P.56, N-[1-[3-(triazol-2-yl)pyrazin-2-yl]ethyl]-6,8-bis(trifluoromethyl)quina-zolin-4-amine]
≥ 80%: percent control (mortality, anti-feedant effect or growth inhibition) at 200 ppm [1] | percent control (mortality, anti-feedant effect or growth inhibition) at 200 ppm [5] | percent control (mortality or growth inhibition) at 200 ppm [3] | percent control (mortality or growth inhibition) at 200 ppm [4]

CC(c1nccnc1-c1ccc(OC(F)F)cn1)N(C)c1ncnc2c(C(F)(F)F)cc(Br)cc12 (stereo not shown) [P.273, 6-bromo-N-[1-[3-[5-(difluoromethoxy)-2-pyridyl]pyrazin-2-yl]ethyl]-N-methyl-8-(trifluoromethyl)quinazolin-4-amine]
≥ 80%: percent control (mortality, anti-feedant effect or growth inhibition) at 200 ppm [1] | percent control (mortality, anti-feedant effect or growth inhibition) at 200 ppm [5] | percent control (mortality or growth inhibition) at 200 ppm [3] | percent control (mortality or growth inhibition) at 200 ppm [4]

C[C@@H](c1ncnn1-c1ncccn1)N(C)c1ccnc2c(C(F)(F)F)cc(C(F)(F)F)cc12 [P.88, N-methyl-N-[(1S)-1-(2-pyrimidin-2-yl-1,2,4-triazol-3-yl)ethyl]-6,8-bis(trifluoromethyl)quino-lin-4-amine]
≥ 80%: percent control (mortality, anti-feedant effect or growth inhibition) at 200 ppm [1] | mortality at 12 ppm [2] | percent control (mortality or growth inhibition) at 200 ppm [3] | percent control (mortality or growth inhibition) at 200 ppm [4]
